What was measured:
[1] = Ratio of drug uptake in frontal lobe to cerebellum in anesthetized cynomolgus monkey after 35 mins postinjection; type: ADME, organism-based, Macaca fascicularis; details: in vivo
Thalamus [2] = experiment: Drug uptake in anesthetized cynomolgus monkey brain thalamus after 207.5 mins postinjection; type: ADME, organism-based, Macaca fascicularis; details: in vivo
Putamen [3] = experiment: Drug uptake in anesthetized cynomolgus monkey brain putamen after 95 mins postinjection; type: ADME, organism-based, Macaca fascicularis; design: unit not given here; details: in vivo
[4] = Drug uptake in anesthetized cynomolgus monkey brain occipital lobe after 125 mins postinjection; type: ADME, organism-based, Macaca fascicularis; details: in vivo
Pons [5] = experiment: Drug uptake in anesthetized cynomolgus monkey brain pons after 35 mins postinjection; type: ADME, organism-based, Macaca fascicularis; details: in vivo
[6] = Ratio of drug uptake in occipital lobe to cerebellum in anesthetized cynomolgus monkey after 95 mins postinjection; type: ADME, organism-based, Macaca fascicularis; details: in vivo
Caudate [7] = experiment: Drug uptake in anesthetized cynomolgus monkey brain caudate after 65 mins postinjection; type: ADME, organism-based, Macaca fascicularis, Caudate nucleus; details: in vivo
Pons [8] = experiment: Drug uptake in anesthetized cynomolgus monkey brain pons after 85 mins postinjection; type: ADME, organism-based, Macaca fascicularis; details: in vivo
Caudate [9] = experiment: Drug uptake in anesthetized cynomolgus monkey brain caudate after 145 mins postinjection; type: ADME, organism-based, Macaca fascicularis, Caudate nucleus; details: in vivo
Putamen [10] = experiment: Drug uptake in anesthetized cynomolgus monkey brain putamen after 105 mins postinjection; type: ADME, organism-based, Macaca fascicularis; design: unit not given here; details: in vivo, 1.75 h
Medulla [11] = experiment: Drug uptake in anesthetized cynomolgus monkey brain medulla after 15.5 mins postinjection; type: ADME, organism-based, Macaca fascicularis; details: in vivo
[12] = Ratio of drug uptake in medulla to cerebellum in anesthetized cynomolgus monkey after 9.5 mins postinjection; type: ADME, organism-based, Macaca fascicularis; details: in vivo
Midbrain [13] = experiment: Drug uptake in anesthetized cynomolgus monkey brain midbrain after 45 mins postinjection; type: ADME, organism-based, Macaca fascicularis; design: unit not given here; details: in vivo, 0.75 h
Medulla [14] = experiment: Drug uptake in anesthetized cynomolgus monkey brain medulla after 187.5 mins postinjection; type: ADME, organism-based, Macaca fascicularis; details: in vivo, 3.125 h
[15] = Ratio of drug uptake in putamen to cerebellum in anesthetized cynomolgus monkey after 45 mins postinjection; type: ADME, organism-based, Macaca fascicularis; details: in vivo, 0.75 h
[16] = Drug uptake in anesthetized cynomolgus monkey brain frontal lobe after 187.5 mins postinjection; type: ADME, organism-based, Macaca fascicularis; details: in vivo, 3.125 h
Caudate [17] = experiment: Drug uptake in anesthetized cynomolgus monkey brain caudate after 187.5 mins postinjection; type: ADME, organism-based, Macaca fascicularis, Caudate nucleus; details: in vivo, 3.125 h
Medulla [18] = experiment: Drug uptake in anesthetized cynomolgus monkey brain medulla after 165 mins postinjection; type: ADME, organism-based, Macaca fascicularis; details: in vivo, 2.75 h
Putamen [19] = experiment: Drug uptake in anesthetized cynomolgus monkey brain putamen after 22.5 mins postinjection; type: ADME, organism-based, Macaca fascicularis; design: unit not given here; details: in vivo, 0.375 h
Thalamus [20] = experiment: Drug uptake in anesthetized cynomolgus monkey brain thalamus after 1.5 mins postinjection; type: ADME, organism-based, Macaca fascicularis; details: in vivo, 0.025 h
Pons [21] = experiment: Drug uptake in anesthetized cynomolgus monkey brain pons after 145 mins postinjection; type: ADME, organism-based, Macaca fascicularis; details: in vivo
Pons [22] = experiment: Drug uptake in anesthetized cynomolgus monkey brain pons after 9.5 mins postinjection; type: ADME, organism-based, Macaca fascicularis; details: in vivo
Medulla [23] = experiment: Drug uptake in anesthetized cynomolgus monkey brain medulla after 207.5 mins postinjection; type: ADME, organism-based, Macaca fascicularis; details: in vivo
Midbrain [24] = experiment: Drug uptake in anesthetized cynomolgus monkey brain midbrain after 9.5 mins postinjection; type: ADME, organism-based, Macaca fascicularis; design: unit not given here; details: in vivo
[25] = Ratio of drug uptake in midbrain to cerebellum in awake rhesus monkey after 85 mins postinjection; type: ADME, organism-based, Macaca mulatta; details: in vivo
Midbrain [26] = experiment: Drug uptake in anesthetized cynomolgus monkey brain midbrain after 2.5 mins postinjection; type: ADME, organism-based, Macaca fascicularis; design: unit not given here; details: in vivo
Pons [27] = experiment: Drug uptake in anesthetized cynomolgus monkey brain pons after 27.5 mins postinjection; type: ADME, organism-based, Macaca fascicularis; details: in vivo
[28] = Ratio of drug uptake in caudate to cerebellum in anesthetized cynomolgus monkey after 9.5 mins postinjection; type: ADME, organism-based, Macaca fascicularis; details: in vivo
[29] = Ratio of drug uptake in putamen to cerebellum in awake rhesus monkey after 105 mins postinjection; type: ADME, organism-based, Macaca mulatta; details: in vivo, 1.75 h
Putamen [30] = experiment: Drug uptake in anesthetized cynomolgus monkey brain putamen after 187.5 mins postinjection; type: ADME, organism-based, Macaca fascicularis; details: in vivo, 3.125 h
Thalamus [31] = experiment: Drug uptake in anesthetized cynomolgus monkey brain thalamus after 197.5 mins postinjection; type: ADME, organism-based, Macaca fascicularis; details: in vivo
[32] = Drug uptake in awake rhesus monkey brain medulla after 115 mins postinjection; type: ADME, organism-based, Macaca mulatta; details: in vivo
[33] = Drug uptake in anesthetized cynomolgus monkey brain cerebellum after 95 mins postinjection; type: ADME, organism-based, Macaca fascicularis; details: in vivo
Midbrain [34] = experiment: Drug uptake in anesthetized cynomolgus monkey brain midbrain after 202.5 mins postinjection; type: ADME, organism-based, Macaca fascicularis; details: in vivo, 3.375 h
[35] = Drug uptake in awake rhesus monkey brain pons after 25 mins postinjection; type: ADME, organism-based, Macaca mulatta; details: in vivo
Putamen [36] = experiment: Drug uptake in anesthetized cynomolgus monkey brain putamen after 207.5 mins postinjection; type: ADME, organism-based, Macaca fascicularis; details: in vivo
[37] = Drug uptake in awake rhesus monkey brain frontal lobe after 25 mins postinjection; type: ADME, organism-based, Macaca mulatta; details: in vivo
[38] = Ratio of drug uptake in midbrain to cerebellum in anesthetized cynomolgus monkey after 18.5 mins postinjection; type: ADME, organism-based, Macaca fascicularis; details: in vivo
Medulla [39] = experiment: Drug uptake in anesthetized cynomolgus monkey brain medulla after 95 mins postinjection; type: ADME, organism-based, Macaca fascicularis; details: in vivo
Putamen [40] = experiment: Drug uptake in anesthetized cynomolgus monkey brain putamen after 6.5 mins postinjection; type: ADME, organism-based, Macaca fascicularis; design: unit not given here; details: in vivo
[41] = Ratio of drug uptake in thalamus to cerebellum in anesthetized cynomolgus monkey after 115 mins postinjection; type: ADME, organism-based, Macaca fascicularis; details: in vivo
Putamen [42] = experiment: Drug uptake in anesthetized cynomolgus monkey brain putamen after 202.5 mins postinjection; type: ADME, organism-based, Macaca fascicularis; details: in vivo, 3.375 h
[43] = Drug uptake in anesthetized cynomolgus monkey brain occipital lobe after 35 mins postinjection; type: ADME, organism-based, Macaca fascicularis; details: in vivo
Midbrain [44] = experiment: Drug uptake in anesthetized cynomolgus monkey brain midbrain after 192.5 mins postinjection; type: ADME, organism-based, Macaca fascicularis; details: in vivo
Pons [45] = experiment: Drug uptake in anesthetized cynomolgus monkey brain pons after 65 mins postinjection; type: ADME, organism-based, Macaca fascicularis; details: in vivo
[46] = Ratio of drug uptake in midbrain to cerebellum in anesthetized cynomolgus monkey after 2.5 mins postinjection; type: ADME, organism-based, Macaca fascicularis; details: in vivo
Thalamus [47] = experiment: Drug uptake in anesthetized cynomolgus monkey brain thalamus after 45 mins postinjection; type: ADME, organism-based, Macaca fascicularis; design: unit not given here; details: in vivo, 0.75 h
Pons [48] = experiment: Drug uptake in anesthetized cynomolgus monkey brain pons after 95 mins postinjection; type: ADME, organism-based, Macaca fascicularis; details: in vivo
[49] = Ratio of drug uptake in medulla to cerebellum in anesthetized cynomolgus monkey after 0.5 mins postinjection; type: ADME, organism-based, Macaca fascicularis; details: in vivo
[50] = Ratio of drug uptake in putamen to cerebellum in anesthetized cynomolgus monkey after 165 mins postinjection; type: ADME, organism-based, Macaca fascicularis; details: in vivo, 2.75 h
Pons [51] = experiment: Drug uptake in anesthetized cynomolgus monkey brain pons after 55 mins postinjection; type: ADME, organism-based, Macaca fascicularis; details: in vivo
[52] = Ratio of drug uptake in thalamus to cerebellum in anesthetized cynomolgus monkey after 135 mins postinjection; type: ADME, organism-based, Macaca fascicularis; details: in vivo, 2.25 h
Midbrain [53] = experiment: Drug uptake in anesthetized cynomolgus monkey brain midbrain after 197.5 mins postinjection; type: ADME, organism-based, Macaca fascicularis; details: in vivo
[54] = Ratio of drug uptake in midbrain to cerebellum in anesthetized cynomolgus monkey after 215 mins postinjection; type: ADME, organism-based, Macaca fascicularis; details: in vivo

For `O=C(OCC[18F])C1C2CCC(CC1c1cccc(/C=C\I)c1)N2` (centres undefined), the Ratio [1] was 0.7, the Drug uptake (Thalamus [2]) was 2.43 and the Drug uptake (Putamen [3]) was 4.02. It also gave a Drug uptake [4] of 1.97, a Drug uptake (Pons [5]) of 3.29 and a Ratio [6] of 0.9. It also gave a Drug uptake (Caudate [7]) of 3.67, a Drug uptake (Pons [8]) of 3.13 and a Drug uptake (Caudate [9]) of 2.75. It also gave a Drug uptake (Putamen [10]) of 3.88, a Drug uptake (Medulla [11]) of 3.53 and a Ratio [12] of 0.9. The Drug uptake (Midbrain [13]) was 4.9, the Drug uptake (Medulla [14]) was 2.64 and the Ratio [15] was 1.2. It also gave a Drug uptake [16] of 1.65, a Drug uptake (Caudate [17]) of 2.26 and a Drug uptake (Medulla [18]) of 2.88. It also gave a Drug uptake (Putamen [19]) of 3.96, a Drug uptake (Thalamus [20]) of 0.09 and a Drug uptake (Pons [21]) of 2.57. For the same compound, the Drug uptake (Pons [22]) was 2.4, the Drug uptake (Medulla [23]) was 2.5 and the Drug uptake (Midbrain [24]) was 3.52. It also gave a Ratio [25] of 1.6, a Drug uptake (Midbrain [26]) of 0.54 and a Drug uptake (Pons [27]) of 3.21. For the same compound, the Ratio [28] was 0.7, the Ratio [29] was 1.5 and the Drug uptake (Putamen [30]) was 2.77. It also gave a Drug uptake (Thalamus [31]) of 2.46, a Drug uptake [32] of 0.11 and a Drug uptake [33] of 2.61. For the same compound, the Drug uptake (Midbrain [34]) was 3.15, the Drug uptake [35] was 0.12 and the Drug uptake (Putamen [36]) was 2.58. It also gave a Drug uptake [37] of 0.11, a Ratio [38] of 1.1 and a Drug uptake (Medulla [39]) of 3.56. It also gave a Drug uptake (Putamen [40]) of 2.54, a Ratio [41] of 1.7 and a Drug uptake (Putamen [42]) of 2.63. The Drug uptake [43] was 3.15, the Drug uptake (Midbrain [44]) was 3.24 and the Drug uptake (Pons [45]) was 3.2. The Ratio [46] was 1.2, the Drug uptake (Thalamus [47]) was 4.3 and the Drug uptake (Pons [48]) was 3.05. It also gave a Ratio [49] of 1.6, a Ratio [50] of 1.8 and a Drug uptake (Pons [51]) of 3.27. It also gave a Ratio [52] of 1.8, a Drug uptake (Midbrain [53]) of 3.2 and a Ratio [54] of 2.2.

— ChEMBL document CHEMBL1151757, “Synthesis, radiosynthesis, and biological evaluation of fluorine-18-labeled 2beta-carbo(fluoroalkoxy)-3beta-(3'-((Z)-2-haloethenyl)phenyl)nortropanes: candidate radioligands for in vivo imaging of the serotonin transporter with positron emission tomography” (J Med Chem, 2008)
